How the values were obtained:
[1] = system: stressed and non-stressed animals; assay: Resident/Intruder Assay (Chronic Social Stress Assay); type: in vivo; set-up: Locomotor Mean ± SD / Rearing Mean ± SD / Sniffing Down Mean ± SD / Sniffing Up Mean ± SD: unit not given here
Text: The behavioral resident/intruder assay is used to screen compounds for anti-depressant-like activity.

Sprague Dawley rats = assay: Forced Swim Test (Acute); type: in vivo, rat
Procedure: The Forced Swim test (FST) is a commonly used procedure to screen compounds for possible antidepressant properties. This test is also known as the behavioral despair test. Rodents placed in […] tanks filled with water present a wide variety of escape or immobility behaviors. Antidepressant drugs from different classes markedly increase escape behaviors and/or decrease latency or duration of immobility.
Venlafaxine and desipramine were dissolved in water. All drugs and their vehicles were administered orally (p.o.) by gavage in a volume of 5 mL/kg.
Male Sprague Dawley rats (140 to 160 g) from Charles River Laboratories Wilmington, Mass. were used. The animals went through a five-day quarantine period before being subjected to the experimental procedure.
Animals were housed in groups of four in plastic cages at an ambient temperature of 21° C. to 23° C. with an automated 12 hour light/dark cycle and access to water and commercial rodent food ad libitum. Animals were not handled more than for the routine bedding change prior to pre-test swim session.
Each experiment consisted of seven treatment groups with n=4 animals per group. A total of 28 animals per experiment were used. Two consecutive experiments (1 and 2, 3 and 4, and 5 and 6) were exact replicas of each other. […] One treatment group of n=4 animals in each experiment was a vehicle treated group. […] In experiments 5 and 6 the effects of venlafaxine and maprotyline at 12 mg/kg, 30 mg/kg, and 60 mg/kg were tested.
The basic apparatus consisted of a cylinder (46 cm tall×˜20 cm diameter) filled with water to 30 cm deep, at a temperature of 25±1° C. The automated version of the FST was used to perform the experiments. Plumbing for automatic filling and emptying water connected the four cylinders. Cylinders were placed in the dividing chambers 25 cm wide to separate animals visually. Each 5-minute experimental session was videotaped and analyzed in real time by computer software (Clever Systems, Inc.) for four animals at a time. The immobility, swimming, climbing and escape times were recorded by the software. The four activities are defined as follow. Immobility: the animal floats motionlessly or makes only those movements necessary to keep its head above water; Climb: the animal vigorously moves vertically while scratching the wall around the cylinder; Swim: the animal moves horizontally around in the cylinder more than necessary to keep its head above water; and Escape: sum of all vigorous active movements.
The ability of a test compound to decrease the duration or frequency of immobility, or changes in swimming, climbing and escape times, was measured using the FST procedure described above. […] The analysis of the results in the studies described was focused on the immobility time during 5-minute test session.
There were two swim sessions in each experiment. First, a pre-test swim session for 15 minutes was performed. Following 48 hours later was a test session of 5-minute duration. Upon completion of a swim session, each animal was placed under a heat lamp in a cage with soft bedding for approximately 15 minutes to prevent hypothermia.
Animals were pre-treated with a vehicle or test compound after completing the pre-test swim session, then 24 hours later and then shortly prior to the 5-minute test session; i.e., three injections were given to each animal between the two swim sessions that occurred on 3 consecutive days.
Data were analyzed using GraphPad Prism software (GraphPad Software, Inc. San Diego, Calif.). For the comparison of the effect of different doses for various drugs on immobility in the FST one-way ANOVA was used followed by Dunnett's multiple comparison test. […] The ED50 and Emax values were statistically compared using two-tail t-test.

[2] = system: amygdala kindled seizures; assay: Amygdala Kindling Assay (Kindling Prevention); type: in vivo, rat
[3] = system: LTG-resistant amygdala kindled seizures; assay: Lamotrigine Resistant Amygdala Kindled Rat Model (Interruption of Kindled State); type: in vivo; details: 75 mg/kg i.p.
Procedure: Amygdala kindling is less severe than hippocampal kindling, such that many AEDs are effective against amygdala kindled seizures, but are ineffective against hippocampal kindled seizures. […] Fifteen minutes after the last stimulation, a single dose of vehicle or test compound was administered i.p. After 15 min, each rat was then stimulated every 30 min for 3 to 4 h. After each stimulation, individual seizure scores and after-discharge durations were recorded. The group mean±SEM was calculated for each parameter.

[4] = non-stressed, 10 mg/kg p.o., week 1
[5] = non-stressed, 10 mg/kg p.o., week 5
[6] = stressed, 10 mg/kg p.o., week 1
[7] = stressed, 10 mg/kg p.o., week 5
[8] = non-stressed, 60 mg/kg p.o., week 1
[9] = non-stressed, 60 mg/kg p.o., week 5
[10] = non-stressed, 120 mg/kg p.o., week 1
[11] = non-stressed, 120 mg/kg p.o., week 5
[12] = stressed, 60 mg/kg p.o., week 1
[13] = stressed, 60 mg/kg p.o., week 5
[14] = stressed, 120 mg/kg p.o., week 1
[15] = stressed, 120 mg/kg p.o., week 5

COc1ccc(C(CN(C)C)C2(O)CCCCC2)cc1 (stereo not shown) [Venlafaxine, venlafaxine, reference compound]
Forced Swim Test: Immobility during 5 min: Week 5 Mean ± SD ([1]; non-stressed, 10 mg/kg p.o.): 181.8 ± 27.6
Sucrose Intake Mean ± SD Week 3 ([1]; non-stressed, 10 mg/kg p.o.): 88.4 ± 9.1
Sucrose Intake Mean ± SD Week 4 ([1]; non-stressed, 10 mg/kg p.o.): 91.5 ± 5.6
Sucrose Intake Mean ± SD Week 5 ([1]; non-stressed, 10 mg/kg p.o.): 87.9 ± 15.0
Locomotor Mean ± SD [1, 4]: 9094.9 ± 1832.7
Rearing Mean ± SD [1, 4]: 48.3 ± 11.2
Sniffing Down Mean ± SD [1, 4]: 27.1 ± 5.2
Sniffing Up Mean ± SD [1, 4]: 43.3 ± 8.9
Locomotor Mean ± SD [1, 5]: 8078.6 ± 1665.2
Rearing Mean ± SD [1, 5]: 40.1 ± 8.9
Sniffing Down Mean ± SD [1, 5]: 27 ± 4.7
Sniffing Up Mean ± SD [1, 5]: 38.6 ± 7.7
Forced Swim Test: Immobility during 5 min: Week 5 Mean ± SD ([1]; stressed, 10 mg/kg p.o.): 190.4 ± 36.8
Sucrose Intake Mean ± SD Week 3 ([1]; stressed, 10 mg/kg p.o.): 74.5 ± 16.7
Sucrose Intake Mean ± SD Week 4 ([1]; stressed, 10 mg/kg p.o.): 76.1 ± 18.2
Sucrose Intake Mean ± SD Week 5 ([1]; stressed, 10 mg/kg p.o.): 73.3 ± 17.6
Locomotor Mean ± SD [1, 6]: 6233.6 ± 1087.2
Rearing Mean ± SD [1, 6]: 30.8 ± 6.6
Sniffing Down Mean ± SD [1, 6]: 14.9 ± 3.5
Sniffing Up Mean ± SD [1, 6]: 28.6 ± 6.5
Locomotor Mean ± SD [1, 7]: 6250.1 ± 789.2
Rearing Mean ± SD [1, 7]: 35.1 ± 7.4
Sniffing Down Mean ± SD [1, 7]: 18.3 ± 3.6
Sniffing Up Mean ± SD [1, 7]: 33.1 ± 7.5
doses at which effect on immobility was statistically significant vs vehicle (Sprague Dawley rats; p.o.): 30 mg/kg and 60 mg/kg

NS(=O)(=O)NC[C@H]1COc2cc(Cl)ccc2O1 [Compound #8, (2S)-(−)-N-(6-Chloro-2,3-dihydro-benzo[1,4]dioxin-2-ylmethyl)-sulfamide]
activity in the resident/intruder assay ([1]; 60 and 120 mg/kg p.o.): active in the resident/intruder assay
Forced Swim Test: Immobility during 5 min: Week 5 Mean ± SD ([1]; non-stressed, 60 mg/kg p.o.): 164.3 ± 25.3
Sucrose Intake Mean ± SD Week 3 ([1]; non-stressed, 60 mg/kg p.o.): 90.9 ± 3.5
Sucrose Intake Mean ± SD Week 4 ([1]; non-stressed, 60 mg/kg p.o.): 92.3 ± 1.4
Sucrose Intake Mean ± SD Week 5 ([1]; non-stressed, 60 mg/kg p.o.): 88.9 ± 7.4
Locomotor Mean ± SD [1, 8]: 8288.6 ± 2117.5
Rearing Mean ± SD [1, 8]: 49.6 ± 8.7
Sniffing Down Mean ± SD [1, 8]: 20.9 ± 3.3
Sniffing Up Mean ± SD [1, 8]: 44.1 ± 9.4
Locomotor Mean ± SD [1, 9]: 7922.9 ± 1476
Rearing Mean ± SD [1, 9]: 37.4 ± 11.5
Sniffing Down Mean ± SD [1, 9]: 23.5 ± 6.4
Sniffing Up Mean ± SD [1, 9]: 33.4 ± 11.2
Forced Swim Test: Immobility during 5 min: Week 5 Mean ± SD ([1]; non-stressed, 120 mg/kg p.o.): 136.7 ± 34.9
Sucrose Intake Mean ± SD Week 3 ([1]; non-stressed, 120 mg/kg p.o.): 83.6 ± 22.1
Sucrose Intake Mean ± SD Week 4 ([1]; non-stressed, 120 mg/kg p.o.): 91.3 ± 4.6
Sucrose Intake Mean ± SD Week 5 ([1]; non-stressed, 120 mg/kg p.o.): 89.3 ± 5.1
Locomotor Mean ± SD [1, 10]: 8056.6 ± 867.2
Rearing Mean ± SD [1, 10]: 42 ± 10.6
Sniffing Down Mean ± SD [1, 10]: 22.8 ± 3.7
Sniffing Up Mean ± SD [1, 10]: 37.6 ± 8.4
Locomotor Mean ± SD [1, 11]: 8648.3 ± 1060.9
Rearing Mean ± SD [1, 11]: 36.5 ± 6.3
Sniffing Down Mean ± SD [1, 11]: 25.5 ± 4.1
Sniffing Up Mean ± SD [1, 11]: 33.5 ± 5.9
Forced Swim Test: Immobility during 5 min: Week 5 Mean ± SD ([1]; stressed, 60 mg/kg p.o.): 175.1 ± 29.5
Sucrose Intake Mean ± SD Week 3 ([1]; stressed, 60 mg/kg p.o.): 92.1 ± 3.2
Sucrose Intake Mean ± SD Week 4 ([1]; stressed, 60 mg/kg p.o.): 89.5 ± 6.9
Sucrose Intake Mean ± SD Week 5 ([1]; stressed, 60 mg/kg p.o.): 92.4 ± 4.5
Locomotor Mean ± SD [1, 12]: 5858.5 ± 708.2
Rearing Mean ± SD [1, 12]: 26.5 ± 6.1
Sniffing Down Mean ± SD [1, 12]: 13 ± 3.3
Sniffing Up Mean ± SD [1, 12]: 25 ± 7.3
Locomotor Mean ± SD [1, 13]: 7080.9 ± 1238.7
Rearing Mean ± SD [1, 13]: 32.8 ± 10.3
Sniffing Down Mean ± SD [1, 13]: 24.8 ± 5.7
Sniffing Up Mean ± SD [1, 13]: 30.6 ± 11.1
Forced Swim Test: Immobility during 5 min: Week 5 Mean ± SD ([1]; stressed, 120 mg/kg p.o.): 128.3 ± 37.4
Sucrose Intake Mean ± SD Week 3 ([1]; stressed, 120 mg/kg p.o.): 76.1 ± 20.8
Sucrose Intake Mean ± SD Week 4 ([1]; stressed, 120 mg/kg p.o.): 75.5 ± 20.6
Sucrose Intake Mean ± SD Week 5 ([1]; stressed, 120 mg/kg p.o.): 87.4 ± 7.9
Locomotor Mean ± SD [1, 14]: 6168.3 ± 1132.1
Rearing Mean ± SD [1, 14]: 29.3 ± 7
Sniffing Down Mean ± SD [1, 14]: 13 ± 3.6
Sniffing Up Mean ± SD [1, 14]: 27.5 ± 6.1
Locomotor Mean ± SD [1, 15]: 6444 ± 1010.3
Rearing Mean ± SD [1, 15]: 30.1 ± 6.4
Sniffing Down Mean ± SD [1, 15]: 22.5 ± 4.1
Sniffing Up Mean ± SD [1, 15]: 30.4 ± 7.5
acquisition of kindling ([2]; 75 mg/kg i.p.): prevented the acquisition of the full generalized kindled seizure
seizure score at the conclusion of the drug- and stimulus-free period ([2]; 75 mg/kg i.p. during kindling acquisition, Racine scale, vehicle 4.6±0.24): 1.4±0.40
after-discharge (AD) duration vs vehicle ([2]; 75 mg/kg i.p., kindling acquisition phase): No statistical difference between treatment groups
after-discharge duration reduced [3]: 86%
rats exhibiting ataxia and sedation ([3]; n=9): Four of the nine
rats protected ([3]; n=9): Eight out of nine
after-discharge duration after treatment ([3]; from 73 sec): 10 s
seizure score after treatment ([3]; reduced from a 5): 0.8
effect on immobility vs control (Sprague Dawley rats; 30 mg/kg p.o., large variability between individual rats): not significantly different from control
Emax (immobility) in the FST (Sprague Dawley rats; p.o.): 67.0 ± 11.6 s
doses at which effect on immobility was statistically significant vs vehicle (Sprague Dawley rats; p.o.): 12 mg/kg, 60 mg/kg, and 120 mg/kg
